Experimental data as given in EP3033337B1, “SUBSTITUTED IMIDAZOLES AS N-TYPE CALCIUM CHANNEL BLOCKERS” (Janssen Pharmaceutica NV, priority 2013, dated 2015).
Read-outs that look alike come from different tables or passages of the source.

Assays:
[1] = biological target: T1, human N-type Ca channel (Homo sapiens, UniProt Q00975); experiment: Calcium influx assay (FDSS), KCl depolarization, Fluo8 dye; type: cell-based; set-up: host or cells: HEK 293; conditions: HEK 293 cells expressing human N-type Ca channel; 100 mM KCl; read-out: N Type IC50 Data FDSS
T1 sequence (Q00975 whole entry): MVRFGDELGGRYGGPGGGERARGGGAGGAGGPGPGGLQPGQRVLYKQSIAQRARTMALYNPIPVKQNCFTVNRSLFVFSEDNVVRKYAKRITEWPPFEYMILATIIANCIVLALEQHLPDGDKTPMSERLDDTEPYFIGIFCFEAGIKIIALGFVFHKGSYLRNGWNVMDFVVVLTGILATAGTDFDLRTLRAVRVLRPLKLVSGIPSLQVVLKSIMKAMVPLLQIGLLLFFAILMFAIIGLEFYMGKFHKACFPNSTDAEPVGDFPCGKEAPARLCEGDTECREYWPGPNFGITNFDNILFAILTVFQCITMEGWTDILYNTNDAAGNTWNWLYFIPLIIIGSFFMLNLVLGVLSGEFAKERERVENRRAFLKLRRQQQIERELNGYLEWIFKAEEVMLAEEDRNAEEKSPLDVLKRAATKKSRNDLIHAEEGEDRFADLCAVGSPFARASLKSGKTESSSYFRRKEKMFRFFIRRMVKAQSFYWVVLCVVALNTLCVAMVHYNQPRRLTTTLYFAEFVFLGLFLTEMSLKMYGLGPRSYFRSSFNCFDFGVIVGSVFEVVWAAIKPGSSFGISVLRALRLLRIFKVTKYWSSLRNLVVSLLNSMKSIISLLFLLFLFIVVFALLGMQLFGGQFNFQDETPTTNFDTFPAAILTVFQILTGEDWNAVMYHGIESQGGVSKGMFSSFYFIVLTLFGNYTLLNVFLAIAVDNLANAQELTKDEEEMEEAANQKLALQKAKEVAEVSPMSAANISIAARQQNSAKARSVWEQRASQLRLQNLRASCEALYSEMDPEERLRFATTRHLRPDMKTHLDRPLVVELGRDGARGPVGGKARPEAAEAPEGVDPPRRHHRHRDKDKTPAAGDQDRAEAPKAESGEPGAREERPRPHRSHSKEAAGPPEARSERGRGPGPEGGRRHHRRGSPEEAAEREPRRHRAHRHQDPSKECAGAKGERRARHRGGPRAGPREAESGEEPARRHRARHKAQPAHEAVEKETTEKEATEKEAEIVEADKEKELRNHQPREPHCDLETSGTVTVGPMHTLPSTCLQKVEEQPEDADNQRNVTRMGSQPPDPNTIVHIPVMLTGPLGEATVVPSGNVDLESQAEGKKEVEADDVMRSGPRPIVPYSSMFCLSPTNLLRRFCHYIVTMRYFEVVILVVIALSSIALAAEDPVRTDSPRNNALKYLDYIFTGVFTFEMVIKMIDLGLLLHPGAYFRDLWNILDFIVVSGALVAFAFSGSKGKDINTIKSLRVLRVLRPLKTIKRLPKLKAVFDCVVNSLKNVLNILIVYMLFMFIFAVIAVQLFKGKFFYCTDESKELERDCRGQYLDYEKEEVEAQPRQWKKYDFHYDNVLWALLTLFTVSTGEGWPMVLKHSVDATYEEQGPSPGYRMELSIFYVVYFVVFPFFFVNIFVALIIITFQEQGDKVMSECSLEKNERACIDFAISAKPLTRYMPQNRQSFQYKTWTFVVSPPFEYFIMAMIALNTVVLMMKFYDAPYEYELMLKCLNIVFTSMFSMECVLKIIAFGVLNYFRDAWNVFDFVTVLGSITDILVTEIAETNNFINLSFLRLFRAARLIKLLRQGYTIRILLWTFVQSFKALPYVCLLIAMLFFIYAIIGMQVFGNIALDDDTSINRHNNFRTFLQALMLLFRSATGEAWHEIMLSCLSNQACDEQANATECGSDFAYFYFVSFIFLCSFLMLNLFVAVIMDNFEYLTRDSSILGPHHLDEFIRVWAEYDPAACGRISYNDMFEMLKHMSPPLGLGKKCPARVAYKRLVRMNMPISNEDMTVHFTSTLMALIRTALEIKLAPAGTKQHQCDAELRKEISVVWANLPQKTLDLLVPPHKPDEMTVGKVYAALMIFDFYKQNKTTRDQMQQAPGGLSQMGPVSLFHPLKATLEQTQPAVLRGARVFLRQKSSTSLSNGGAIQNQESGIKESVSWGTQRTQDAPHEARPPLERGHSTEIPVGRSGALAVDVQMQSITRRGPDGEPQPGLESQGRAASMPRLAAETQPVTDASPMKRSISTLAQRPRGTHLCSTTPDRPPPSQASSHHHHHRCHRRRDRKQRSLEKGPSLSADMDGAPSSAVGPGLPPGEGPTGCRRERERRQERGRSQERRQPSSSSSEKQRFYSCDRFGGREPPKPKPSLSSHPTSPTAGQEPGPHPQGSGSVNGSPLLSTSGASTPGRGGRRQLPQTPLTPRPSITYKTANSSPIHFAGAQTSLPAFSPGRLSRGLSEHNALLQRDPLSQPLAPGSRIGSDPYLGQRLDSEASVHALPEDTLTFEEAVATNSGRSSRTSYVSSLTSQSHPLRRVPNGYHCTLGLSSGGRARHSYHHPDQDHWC
T1 sequence (P54284 whole entry partner): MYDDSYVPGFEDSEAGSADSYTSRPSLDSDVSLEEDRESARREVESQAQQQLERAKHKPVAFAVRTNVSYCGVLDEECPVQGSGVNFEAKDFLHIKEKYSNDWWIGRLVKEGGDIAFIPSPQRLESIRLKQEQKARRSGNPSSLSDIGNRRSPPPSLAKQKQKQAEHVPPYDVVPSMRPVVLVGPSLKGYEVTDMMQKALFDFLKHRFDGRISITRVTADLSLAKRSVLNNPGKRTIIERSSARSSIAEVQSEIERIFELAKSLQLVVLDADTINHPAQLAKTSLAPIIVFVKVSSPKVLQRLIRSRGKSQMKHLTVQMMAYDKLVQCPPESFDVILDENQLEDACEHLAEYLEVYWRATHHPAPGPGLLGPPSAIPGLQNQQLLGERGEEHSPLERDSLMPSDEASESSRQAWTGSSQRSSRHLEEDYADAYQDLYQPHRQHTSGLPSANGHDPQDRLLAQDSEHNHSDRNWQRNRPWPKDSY
T1 sequence (P54289 25-956 partner limits assumed): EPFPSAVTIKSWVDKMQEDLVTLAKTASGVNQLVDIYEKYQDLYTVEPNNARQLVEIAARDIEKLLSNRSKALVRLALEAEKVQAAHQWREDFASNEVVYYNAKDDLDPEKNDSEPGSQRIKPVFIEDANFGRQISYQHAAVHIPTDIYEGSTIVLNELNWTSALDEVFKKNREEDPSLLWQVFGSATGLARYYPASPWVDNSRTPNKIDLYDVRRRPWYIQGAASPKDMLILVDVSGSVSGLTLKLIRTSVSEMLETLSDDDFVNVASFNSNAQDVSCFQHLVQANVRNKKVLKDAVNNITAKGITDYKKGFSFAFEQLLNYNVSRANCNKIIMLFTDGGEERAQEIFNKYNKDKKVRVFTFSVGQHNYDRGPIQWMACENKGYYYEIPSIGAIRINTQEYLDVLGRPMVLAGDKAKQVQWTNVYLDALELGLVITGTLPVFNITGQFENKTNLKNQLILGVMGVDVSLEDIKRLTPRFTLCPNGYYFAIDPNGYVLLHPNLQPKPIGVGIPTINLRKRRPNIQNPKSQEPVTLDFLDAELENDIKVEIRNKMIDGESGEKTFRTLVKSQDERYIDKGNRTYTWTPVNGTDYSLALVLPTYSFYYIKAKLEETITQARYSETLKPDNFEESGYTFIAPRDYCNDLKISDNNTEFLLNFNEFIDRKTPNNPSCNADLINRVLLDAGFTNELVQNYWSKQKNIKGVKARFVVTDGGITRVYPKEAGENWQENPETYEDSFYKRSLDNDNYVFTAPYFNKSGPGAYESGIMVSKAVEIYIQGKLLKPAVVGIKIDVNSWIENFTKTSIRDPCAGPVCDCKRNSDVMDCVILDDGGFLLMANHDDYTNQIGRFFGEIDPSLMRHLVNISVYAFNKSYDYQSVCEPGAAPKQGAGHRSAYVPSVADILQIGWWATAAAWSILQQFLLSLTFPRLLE
T1 sequence (P54289 957-1103 partner limits assumed): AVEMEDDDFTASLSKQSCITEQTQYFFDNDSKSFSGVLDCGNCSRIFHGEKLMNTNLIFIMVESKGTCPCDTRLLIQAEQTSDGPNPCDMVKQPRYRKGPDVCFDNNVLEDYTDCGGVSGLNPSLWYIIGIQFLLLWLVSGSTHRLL
Protocol: All cell culture reagents were procured from HyClone and other reagents were from Fisher. Recombinant HEK 293 cells expressing human N-type Ca channel (Millipore) were maintained in DMEM F12 containing 10% FBS and selection antibiotics at 37 °C in 5% CO2.
Cells were incubated at 30 °C in 5% CO2 overnight. The medium was removed and cells were loaded with Fluo8 dye (AAT Bioquest) at 37 °C and 30 °C, 30 min each in darkness. Cells were washed four times with wash buffer (16 mM Herep pH 7.2, 2 mM CaCl2, 1 mM MgCl2, 5 mM glucose, 140 mM choline chloride and 2 mM KCl) leaving 15 µL buffer after the last wash. Compounds of Formula (I), serially diluted, were added to the cell plate. The plates were incubated in darkness for 15 min. Cells were depolarized with 100 mM KCl and Ca influx was measured.

[2] = biological target: T1, human N-type Ca channel; experiment: Electrophysiological response, QPatch (depolarization -80 mV to +20 mV)
[3] = N Type IC50 Data Qpatch Pulse=1, Pulse=1, concentration range 0.01-1 µM
[4] = read-out: N Type IC50 Data Qpatch Pulse=15, Pulse=15, concentration range 0.01-1 µM
[5] = N Type IC50 Data Qpatch Pulse=15, Pulse=15, concentration range 0.01-1 µM
[6] = N Type IC50 Data Qpatch Pulse=1, Pulse=1, concentration range 0.3-10 µM
[7] = N Type IC50 Data Qpatch Pulse=15, Pulse=15, concentration range 0.3-10 µM
[8] = Pulse=1, concentration range 0.01-1 µM
[9] = Pulse=15, concentration range 0.01-1 µM
[10] = read-out: N Type IC50 Data Qpatch Pulse=1, Pulse=1, concentration range 0.01-1 µM
[11] = Pulse=15, concentration range 0.01-0.3 µM
[12] = N Type IC50 Data Qpatch Pulse=1, Pulse=1, concentration range 0.01-0.3 µM
[13] = read-out: Qpatch Pulse=1 (percent inhibition)

SMILES: COc1ncncc1-c1nc(C2CC(C)(C)OC(C)(C)C2)cn1-c1ccc(Cl)cc1 [Compound 49, 5-(1-(4-chlorophenyl)-4-(2,2,6,6-tetramethyltetrahydro-2H-pyran-4-yl)-1H-imidazol-2-yl)-4-methoxypyrimidine]
- IC50 [1]: 123 nM
- IC50 [2, 3]: > 1000 nM
- IC50 [2, 4]: > 1000 nM

SMILES: COc1nccnc1-c1nc(C2CC(C)(C)OC(C)(C)C2)cn1-c1ccc(Cl)cc1 [Compound 50, 2-(1-(4-chlorophenyl)-4-(2,2,6,6-tetramethyltetrahydro-2H-pyran-4-yl)-1H-imidazol-2-yl)-3-methoxypyrazine]
- IC50 [1]: 215 nM
- IC50 [2, 3]: > 1000 nM
- IC50 [2, 5]: 971 nM

SMILES: CCOc1ncccc1-c1nc(C2CC(C)(C)OC(C)(C)C2)cn1-c1ccc(Cl)cc1 [Compound 51, 3-(1-(4-chlorophenyl)-4-(2,2,6,6-tetramethyltetrahydro-2H-pyran-4-yl)-1H-imidazol-2-yl)-2-ethoxypyridine]
- IC50 [1]: 29 nM
- IC50 [2, 3]: 179 nM
- IC50 [2, 5]: 701 nM

SMILES: CCOc1ncccc1-c1nc(C2CC(C)(C)OC(C)(C)C2)cn1-c1ccc(F)c(F)c1 [Compound 52, 3-(1-(3,4-difluorophenyl)-4-(2,2,6,6-tetramethyltetrahydro-2H-pyran-4-yl)-1H-imidazol-2-yl)-2-ethoxypyridine]
- IC50 [1]: 115 nM
- IC50 [2, 3]: 721 nM
- IC50 [2, 4]: > 1000 nM

SMILES: COc1ccccc1-c1nc(C2CC(C)(C)OC(C)(C)C2)cn1-c1ccc(C(F)(F)F)nc1 [Compound 53, 5-(2-(2-methoxyphenyl)-4-(2,2,6,6-tetramethyltetrahydro-2H-pyran-4-yl)-1H-imidazol-1-yl)-2-(trifluoromethyl)pyridine]
- IC50 [1]: 96 nM
- IC50 [2, 6]: 6500 nM
- IC50 [2, 7]: 2010 nM

SMILES: COc1ncccc1-c1nc(C2CC(C)(C)OC(C)(C)C2)cn1-c1ccc(C(F)(F)F)nc1 [Compound 54, 2-methoxy-3-(4-(2,2,6,6-tetramethyltetrahydro-2H-pyran-4-yl)-1-(6-(trifluoromethyl)pyridin-3-yl)-1H-imidazol-2-yl)pyridine]
- IC50 [1]: 1960 nM
- IC50 [2, 3]: 302 nM
- IC50 [2, 5]: 237 nM
- N Type IC50 Data Qpatch Pulse=1 [2, 8]: Poor fit
- N Type IC50 Data Qpatch Pulse=15 [2, 9]: Poor fit

SMILES: CC1(C)CC(c2cn(-c3ccc(Cl)cc3)c(CC3CC3)n2)CC(C)(C)O1 [Compound 55, 1-(4-chlorophenyl)-2-(cyclopropylmethyl)-4-(2,2,6,6-tetramethyltetrahydro-2H-pyran-4-yl)-1H-imidazole]
- IC50 [1]: 384 nM
- IC50 [2, 5]: 780 nM

SMILES: CC1(C)CC(c2cn(-c3ccc(Cl)cc3)c(C3CC3)n2)CC(C)(C)O1 [Compound 56, 1-(4-chlorophenyl)-2-cyclopropyl-4-(2,2,6,6-tetramethyltetrahydro-2H-pyran-4-yl)-1H-imidazole]
- IC50 [1]: 1670 nM
- IC50 [2, 10]: > 1000 nM
- IC50 [2, 4]: > 1000 nM

SMILES: CC1(C)CC(c2cn(-c3ccc(C#N)cc3)c(C3CC3)n2)CC(C)(C)O1 [Compound 57, 4-(2-cyclopropyl-4-(2,2,6,6-tetramethyltetrahydro-2H-pyran-4-yl)-1H-imidazol-1-yl)benzonitrile]
- IC50 [1]: 10000 nM
- IC50 [2, 10]: > 1000 nM
- IC50 [2, 4]: > 1000 nM

SMILES: CC1(C)CC(c2cn(-c3ccc(C#N)cc3)c(CC3CC3)n2)CC(C)(C)O1 [Compound 58, 4-(2-(cyclopropylmethyl)-4-(2,2,6,6-tetramethyltetrahydro-2H-pyran-4-yl)-1H-imidazol-1-yl)benzonitrile]
- IC50 [1]: 4810 nM
- IC50 [2, 10]: > 1000 nM
- IC50 [2, 4]: > 1000 nM

SMILES: CC1(C)CC(c2cn(-c3ccc(C(F)(F)F)nc3)c(CC3CC3)n2)CC(C)(C)O1 [Compound 59, 5-(2-(cyclopropylmethyl)-4-(2,2,6,6-tetramethyltetrahydro-2H-pyran-4-yl)-1H-imidazol-1-yl)-2-(trifluoromethyl)pyridine]
- IC50 [1]: 4400 nM
- N Type IC50 Data Qpatch Pulse=1 ([2]; Pulse=1, concentration range 0.01-0.3 µM): poor fit(0.01-0.3 µM)
- N Type IC50 Data Qpatch Pulse=15 [2, 11]: poor fit(0.01-0.3 µM)

SMILES: CCOc1nccnc1-c1nc(C2CC(C)(C)OC(C)(C)C2)cn1-c1ccc(Cl)cc1 [Compound 60, 2-(1-(4-chlorophenyl)-4-(2,2,6,6-tetramethyltetrahydro-2H-pyran-4-yl)-1H-imidazol-2-yl)-3-ethoxypyrazine]
- IC50 [1]: 321 nM
- IC50 [2, 12]: 247 nM
- N Type IC50 Data Qpatch Pulse=15 [2, 11]: poor fit(0.01-0.3 µM)

SMILES: COc1ccccc1-c1nc(C2CC(C)(C)OC(C)(C)C2)cn1-c1ccc(OC(F)F)cc1 [Compound 61, 1-(4-(difluoromethoxy)phenyl) -2-(2-methoxyphenyl)-4-(2,2,6,6-tetramethyltetrahydro-2H-pyran-4-yl)-1H-imidazole]
- IC50 [1]: 37 nM
- IC50 [2, 12]: 751 nM
- IC50 ([2]; N Type IC50 Data Qpatch Pulse=15, Pulse=15, concentration range 0.01-0.3 µM): 1050 nM

SMILES: COc1ccccc1-c1nc(C2CC(C)(C)OC(C)(C)C2)cn1-c1ccc(Br)c(F)c1 [Compound 62, 1-(4-bromo-3-fluorophenyl)-2-(2-methoxyphenyl)-4-(2,2,6,6-tetramethyltetrahydro-2H-pyran-4-yl)-1H-imidazole]
- IC50 [1]: 177 nM
- IC50 [2, 7]: 413 nM
- inhibition at 10 µM [2, 13]: 81%

SMILES: COc1ccccc1-c1nc(C2CC(C)(C)OC(C)(C)C2)cn1-c1ccc(F)c(Br)c1 [Compound 63, 1-(3-bromo-4-fluorophenyl)-2-(2-methoxyphenyl)-4-(2,2,6,6-tetramethyltetrahydro-2H-pyran-4-yl)-1H-imidazole]
- IC50 [1]: 213 nM
- IC50 [2, 7]: 3500 nM
- inhibition at 10 µM [2, 13]: 53%

SMILES: COc1ncccc1-c1nc(C2CC(C)(C)OC(C)(C)C2)cn1-c1ccc(F)c(Br)c1 [Compound 64, 3-(1-(3-bromo-4-fluorophenyl)-4-(2,2,6,6-tetramethyltetrahydro-2H-pyran-4-yl)-1H-imidazol-2-yl)-2-methoxypyridine]
- IC50 [1]: 360 nM
- IC50 [2, 6]: 4060 nM
- IC50 [2, 7]: 1720 nM

SMILES: COc1ncccc1-c1nc(C2CC(C)(C)OC(C)(C)C2)cn1-c1ccc(Br)c(F)c1 [Compound 65, 3-(1-(4-bromo-3-fluorophenyl)-4-(2,2,6,6-tetramethyltetrahydro-2H-pyran-4-yl)-1H-imidazol-2-yl)-2-methoxypyridine]
- IC50 [1]: 225 nM
- IC50 [2, 7]: 8600 nM
- inhibition at 10 µM [2, 13]: 58%

SMILES: COc1cnccc1-c1nc(C2CC(C)(C)OC(C)(C)C2)cn1-c1ccc(Cl)cc1 [Compound 66, 4-(1-(4-chlorophenyl)-4-(2,2,6,6-tetramethyltetrahydro-2H-pyran-4-yl)-1H-imidazol-2-yl)-3-methoxypyridine]
- IC50 [1]: 49 nM
- IC50 [2, 7]: 1300 nM

SMILES: COc1ccncc1-c1nc(C2CC(C)(C)OC(C)(C)C2)cn1-c1ccc(Cl)cc1 [Compound 68, 3-(1-(4-chlorophenyl)-4-(2,2,6,6-tetramethyltetrahydro-2H-pyran-4-yl)-1H-imidazol-2-yl)-4-methoxypyridine]
- IC50 [1]: 109 nM
- IC50 [2, 7]: 4600 nM

SMILES: COc1ccncc1-c1nc(C2CC(C)(C)OC(C)(C)C2)cn1-c1ccc(F)cc1 [Compound 69, 3-(1-(4-fluorophenyl)-4-(2,2,6,6-tetramethyltetrahydro-2H-pyran-4-yl)-1H-imidazol-2-yl)-4-methoxypyridine]
- IC50 [1]: 1430 nM
- inhibition at 10 µM [2, 13]: 53%
- inhibition at 10 µM ([2]; read-out: Qpatch Pulse=15 (percent inhibition)): 29%

SMILES: COc1cccnc1-c1nc(C2CC(C)(C)OC(C)(C)C2)cn1-c1ccc(F)cc1 [Compound 70, 2-(1-(4-fluorophenyl)-4-(2,2,6,6-tetramethyltetrahydro-2H-pyran-4-yl)-1H-imidazol-2-yl)-3-methoxypyridine]
- IC50 [1]: 871 nM
- inhibition at 10 µM [2, 13]: 41%

SMILES: COc1ncccc1-c1nc(C2CC(C)(C)OC(C)(C)C2)cn1-c1cc(F)ccc1F [Compound 71, 3-(1-(2,5-difluorophenyl)-4-(2,2,6,6-tetramethyltetrahydro-2H-pyran-4-yl)-1H-imidazol-2-yl)-2-methoxypyridine]
- IC50 [1]: 422 nM
- IC50 [2, 3]: 5830 nM
- N Type IC50 Data Qpatch Pulse=15 [2, 9]: poor fit(0.01- 1 µM)

SMILES: COc1ncccc1-c1nc(C2CC(C)(C)OC(C)(C)C2)cn1-c1cc(F)cc(F)c1 [Compound 72, 3-(1-(3,5-difluorophenyl)-4-(2,2,6,6-tetramethyltetrahydro-2H-pyran-4-yl)-1H-imidazol-2-yl)-2-methoxypyridine]
- IC50 [1]: 2400 nM
- N Type IC50 Data Qpatch Pulse=1 [2, 8]: poor fit(0.01- 1 µM)
- N Type IC50 Data Qpatch Pulse=15 [2, 9]: poor fit(0.01- 1 µM)

SMILES: COc1ncccc1-c1nc(C2CC(C)(C)OC(C)(C)C2)cn1-c1cc(F)cc(C#N)c1 [Compound 73, 3-fluoro-5-(2-(2-methoxypyridin-3-yl)-4-(2,2,6,6-tetramethyltetrahydro-2H-pyran-4-yl)-1H-imidazol-1-yl)benzonitrile]
- IC50 [1]: 8160 nM
- N Type IC50 Data Qpatch Pulse=1 [2, 8]: poor fit(0.01- 1 µM)
- N Type IC50 Data Qpatch Pulse=15 [2, 9]: poor fit(0.01- 1 µM)

SMILES: CCOc1ccc(-n2cc(C3CC(C)(C)OC(C)(C)C3)nc2-c2cccnc2OC)cn1 [Compound 75, 3-(1-(6-ethoxypyridin-3-yl)-4-(2,2,6,6-tetramethyltetrahydro-2H-pyran-4-yl)-1H-imidazol-2-yl)-2-methoxypyridine]
- IC50 [1]: 2060 nM
- IC50 [2, 6]: 9800 nM
- IC50 [2, 7]: 4200 nM
